# Test results: PMC6105164 (Cancer Chemotherapy and Pharmacology, 2018)
# Entries after “also recorded” stand apart in the source; their conditions may differ.
# How the values were obtained:
# [1] = tested on: Japanese patients with relapsed/refractory solid tumors; experiment: Safety: dose-limiting toxicity and adverse events (NCI-CTCAE v.4.0); assay type: in vivo, human; settings: for Death: first and repeated regimens
# Excerpt: Treatment was immediately terminated at the patient’s request when DLT occurred; the study physician decided that continuation was inappropriate because of AEs; or if the tumor was classified as progressive disease (PD) according to the Response Evaluation Criteria in Solid Tumor (RECIST) Guideline. In cases of DLT, patients were allowed to continue the regimen with dose adjustments upon providing written agreement.
# Patients were registered when up to three patients received ≥ 60% of planned treatment in the regimen before DLT was evaluated for dose escalation. […] According to the DLT and pharmacokinetics data obtained by a given time, the recommended dose was determined and additional three patients were added to the dosing group a posteriori.
# To evaluate the safety, vital signs (systolic and diastolic blood pressure, pulse rate, body temperature, and body weight), 12-lead electrocardiogram, clinical laboratory tests, chest X-ray, and performance status [Eastern Cooperative Oncology Group (ECOG)] were evaluated on predefined dates (Supplemental Table S1). Examined items in the clinical laboratory tests are listed in Supplemental Table S2.
# AEs were graded in accordance with NCI-CTCAE v.4.0 and recorded. The study physicians determined whether the AEs were drug-related and recorded.
# RAS-mutated patients = settings: previous phase I/II trials in the USA; cited from earlier work
# [2] = tested on: relapsed/refractory solid tumors; experiment: Exploratory evaluation of efficacy (RECIST); assay type: in vivo, human; settings: for Number of cycles completed, Median / Number of cycles completed, Range: completed = ≥ 60% of planned treatment
# Excerpt: Treatment was immediately terminated at the patient’s request when DLT occurred; the study physician decided that continuation was inappropriate because of AEs; or if the tumor was classified as progressive disease (PD) according to the Response Evaluation Criteria in Solid Tumor (RECIST) Guideline. In cases of DLT, patients were allowed to continue the regimen with dose adjustments upon providing written agreement. At the end of the regimen, patients were allowed to repeat the same regimen if all of the following criteria were met: no DLT occurred; the tumor was not determined as PD; the study physicians agreed; and the patient provided written informed consent. […] Diagnostic imaging using computed tomography, magnetic resonance imaging (MRI), fluorodeoxyglucose-positron emission tomography (PET), and/or bone scintigraphy was performed depending on the tumors and clinical symptoms on day 22 of first and repeated regimens or at discontinuation. Specific tumor markers (e.g., carcinoembryonic antigen for colorectal cancer and prostate-specific antigen for prostate cancer) were measured on day 22 of first and repeated regimens or at discontinuation. Based on the information obtained, the efficacy was scored in accordance with the RECIST guideline.
# [3] = Urine concentration of Salirasib (LC-MS/MS), day 1; assay type: in vivo, human; settings: within 24 h, any dosing group (200, 600, 1000 mg sampled)
# Procedure: Blood samples were collected 10 times on day 1 (before drug administration, and 0.5-, 1-, 1.5-, 2-, 4-, 6-, 8-, 12-, and 24-h post-administration), once on days 4, 7, and 14, and 9 times on day 21 (before morning dose, and 0.5, 1, 1.5, 2, 4, 6, 8, and 12 h after morning dose but before evening dose). Urine samples were collected from patients who received 200, 600, or 1000 mg on day 1 (before drug administration, and 0–6-, 6–12-, 12–24-h post-administration).
# US patients = settings: cited from earlier work
# [4] = 800 mg twice-daily, for one patient days until withdrawal were counted
# [5] = 800 mg twice-daily, two patients not evaluated
# [6] = patients with KRAS mutations (4 patients)
structure (smiles),measurement,setting,value
"CC(C)=CCC/C(C)=C/CC/C(C)=C/CSc1ccccc1C(=O)O [Salirasib, S-trans, trans-farnesylthiosalicylic acid]",Death,[1]; 100 mg twice-daily,0 (0.0) N (%)
same,Death,[1]; 200 mg twice-daily,0 (0.0) N (%)
same,Death,[1]; 400 mg twice-daily,0 (0.0) N (%)
same,Death,[1]; 600 mg twice-daily,0 (0.0) N (%)
same,Death,[1]; 800 mg twice-daily,0 (0.0) N (%)
same,Death,[1]; 1000 mg twice-daily,0 (0.0) N (%)
same,Death,"[1]; Total, all dose groups",0 (0.0) N (%)
same,"deaths during the treatment period, in words",[1]; all dose groups,No patients died
same,AEs observed at grade ≥ 3: ALP increased,"[1]; human, in vivo",3 (14.3) N (%)
same,AEs observed at grade ≥ 3: AST increased,"[1]; human, in vivo",1 (4.8) N (%)
same,AEs observed at grade ≥ 3: Amylase increased,"[1]; human, in vivo",1 (4.8) N (%)
same,AEs observed at grade ≥ 3: Anemia,"[1]; human, in vivo",2 (9.5) N (%)
same,AEs observed at grade ≥ 3: Ascites,"[1]; human, in vivo",1 (4.8) N (%)
same,AEs observed at grade ≥ 3: Bilirubin increased,"[1]; human, in vivo",1 (4.8) N (%)
same,AEs observed at grade ≥ 3: Cancer pain,"[1]; human, in vivo",1 (4.8) N (%)
same,AEs observed at grade ≥ 3: Cholestatic jaundice,"[1]; human, in vivo",1 (4.8) N (%)
same,AEs observed at grade ≥ 3: Decreased appetite,"[1]; human, in vivo",1 (4.8) N (%)
same,AEs observed at grade ≥ 3: Diarrhea,"[1]; human, in vivo",2 (9.5) N (%)
same,AEs observed at grade ≥ 3: Hemoglobin decreased,"[1]; human, in vivo",2 (9.5) N (%)
same,AEs observed at grade ≥ 3: Hypercalcemia,"[1]; human, in vivo",1 (4.8) N (%)
same,AEs observed at grade ≥ 3: Hyponatremia,"[1]; human, in vivo",2 (9.5) N (%)
same,AEs observed at grade ≥ 3: Hypophosphatemia,"[1]; human, in vivo",1 (4.8) N (%)
same,AEs observed at grade ≥ 3: Lymphopenia,"[1]; human, in vivo",1 (4.8) N (%)
same,AEs observed at grade ≥ 3: Troponin T increased,"[1]; human, in vivo",1 (4.8) N (%)
same,AEs observed at grade ≥ 3: γ-GTP increased,"[1]; human, in vivo",3 (14.3) N (%)
same,AEs observed in ≥ 3 patients: Abdominal pain,"[1]; human, in vivo",6 (28.6) N (%)
same,AEs observed in ≥ 3 patients: Decreased appetite,"[1]; human, in vivo",9 (42.9) N (%)
same,AEs observed in ≥ 3 patients: Diarrhea,"[1]; human, in vivo",18 (85.7) N (%)
same,AEs observed in ≥ 3 patients: Nausea,"[1]; human, in vivo",6 (28.6) N (%)
same,AEs observed in ≥ 3 patients: Vomiting,"[1]; human, in vivo",4 (19.0) N (%)
same,All AEs,"[1]; human, in vivo",21 (100) N (%)
same,All drug-related AEs,"[1]; human, in vivo",19 (90.5) N (%)
same,Discontinuation because of AEs,"[1]; human, in vivo",0 (0.0) N (%)
same,Discontinuation because of drug-related AEs,"[1]; human, in vivo",0 (0.0) N (%)
same,Dose-limiting toxicity (DLT),"[1]; human, in vivo",0 (0.0) N (%)
same,Patients with AEs of grade ≥ 3,"[1]; human, in vivo",9 (42.9) N (%)
same,Patients with drug-related AEs of grade ≥ 3,"[1]; human, in vivo",4 (19.0) N (%)
same,Serious AEs,"[1]; human, in vivo",1 (4.8) N (%)
same,Serious drug-related AEs,"[1]; human, in vivo",0 (0.0) N (%)
same,patients in whom AEs were observed,"[1]; human, in vivo",21 patients
same,dose considered safe and tolerable,"[1]; human, in vivo, 28 days",up to 1000 mg
same,"AEs of grade ≥ 3, in words",[1]; in vivo,not observed
same,"Dose-limiting toxicity (DLT), in words",[1]; in vivo,no DLT was observed
same,maximum tolerable dose,[1]; in vivo,No maximum tolerable dose was discerned
same,"patients with drug-related AEs, in words",[1]; in vivo,in all patients except two
same,"serious AE, in words",[1]; in vivo,One serious AE (ascites)
same,efficacy in RAS-mutated patients,RAS-mutated patients,not conclusive
same,tolerability,RAS-mutated patients,good tolerability
same,Disease control rate (DCR): CR + PR + SD,[2]; 100 mg twice-daily,1 (33.3) N (%)
same,Objective response rate (ORR): CR + PR,[2]; 100 mg twice-daily,0 (0.0) N (%)
same,"Progression-free survival, Median",[2]; 100 mg twice-daily,22 days
same,"Progression-free survival, Range",[2]; 100 mg twice-daily,16 to 53 days
same,Response rate: Complete response (CR),[2]; 100 mg twice-daily,0 (0.0) N (%)
same,Response rate: Partial response (PR),[2]; 100 mg twice-daily,0 (0.0) N (%)
same,Response rate: Progressive disease (PD),[2]; 100 mg twice-daily,2 (66.7) N (%)
same,"Number of cycles completed, Median",[2]; 100 mg twice-daily,1
same,"Number of cycles completed, Range",[2]; 100 mg twice-daily,1–2
same,Disease control rate (DCR): CR + PR + SD,[2]; 200 mg twice-daily,3 (100.0) N (%)
same,Objective response rate (ORR): CR + PR,[2]; 200 mg twice-daily,0 (0.0) N (%)
same,"Progression-free survival, Median",[2]; 200 mg twice-daily,213 days
same,"Progression-free survival, Range",[2]; 200 mg twice-daily,57 to 373 days
same,Response rate: Complete response (CR),[2]; 200 mg twice-daily,0 (0.0) N (%)
same,Response rate: Partial response (PR),[2]; 200 mg twice-daily,0 (0.0) N (%)
same,Response rate: Progressive disease (PD),[2]; 200 mg twice-daily,0 (0.0) N (%)
same,"Number of cycles completed, Median",[2]; 200 mg twice-daily,7
same,"Number of cycles completed, Range",[2]; 200 mg twice-daily,2–13
same,Disease control rate (DCR): CR + PR + SD,[2]; 400 mg twice-daily,2 (66.7) N (%)
same,Objective response rate (ORR): CR + PR,[2]; 400 mg twice-daily,0 (0.0) N (%)
same,"Progression-free survival, Median",[2]; 400 mg twice-daily,56 days
same,"Progression-free survival, Range",[2]; 400 mg twice-daily,22 to 91 days
same,Response rate: Complete response (CR),[2]; 400 mg twice-daily,0 (0.0) N (%)
same,Response rate: Partial response (PR),[2]; 400 mg twice-daily,0 (0.0) N (%)
same,Response rate: Progressive disease (PD),[2]; 400 mg twice-daily,1 (33.3) N (%)
same,"Number of cycles completed, Median",[2]; 400 mg twice-daily,2
same,"Number of cycles completed, Range",[2]; 400 mg twice-daily,1–3
same,Disease control rate (DCR): CR + PR + SD,[2]; 600 mg twice-daily,2 (66.7) N (%)
same,Objective response rate (ORR): CR + PR,[2]; 600 mg twice-daily,0 (0.0) N (%)
same,"Progression-free survival, Median",[2]; 600 mg twice-daily,135 days
same,"Progression-free survival, Range",[2]; 600 mg twice-daily,79 to 319 days
same,Response rate: Complete response (CR),[2]; 600 mg twice-daily,0 (0.0) N (%)
same,Response rate: Partial response (PR),[2]; 600 mg twice-daily,0 (0.0) N (%)
same,Response rate: Progressive disease (PD),[2]; 600 mg twice-daily,1 (33.3) N (%)
same,"Number of cycles completed, Median",[2]; 600 mg twice-daily,5
same,"Number of cycles completed, Range",[2]; 600 mg twice-daily,3–11
same,"Number of cycles completed, Median",[2]; 800 mg twice-daily,1
same,"Number of cycles completed, Range",[2]; 800 mg twice-daily,1–11
same,"Progression-free survival, Median",[2]; [4],29 days
same,"Progression-free survival, Range",[2]; [4],22 to 307 days
same,Disease control rate (DCR): CR + PR + SD,[2]; [5],1 (16.7) N (%)
same,Objective response rate (ORR): CR + PR,[2]; [5],0 (0.0) N (%)
same,Response rate: Complete response (CR),[2]; [5],0 (0.0) N (%)
same,Response rate: Partial response (PR),[2]; [5],0 (0.0) N (%)
same,Response rate: Progressive disease (PD),[2]; [5],3 (50.0) N (%)
same,Disease control rate (DCR): CR + PR + SD,[2]; 1000 mg twice-daily,1 (33.3) N (%)
same,Objective response rate (ORR): CR + PR,[2]; 1000 mg twice-daily,0 (0.0) N (%)
same,"Progression-free survival, Median",[2]; 1000 mg twice-daily,22 days
same,"Progression-free survival, Range",[2]; 1000 mg twice-daily,22 to 91 days
same,Response rate: Complete response (CR),[2]; 1000 mg twice-daily,0 (0.0) N (%)
same,Response rate: Partial response (PR),[2]; 1000 mg twice-daily,0 (0.0) N (%)
same,Response rate: Progressive disease (PD),[2]; 1000 mg twice-daily,2 (66.7) N (%)
same,"Number of cycles completed, Median",[2]; 1000 mg twice-daily,1
same,"Number of cycles completed, Range",[2]; 1000 mg twice-daily,1–3
same,Disease control rate (DCR): CR + PR + SD,"[2]; Total, all dose groups",10 (47.6) N (%)
same,Objective response rate (ORR): CR + PR,"[2]; Total, all dose groups",0 (0.0) N (%)
same,"Progression-free survival, Median","[2]; Total, all dose groups",53 days
same,"Progression-free survival, Range","[2]; Total, all dose groups",16 to 373 days
same,Response rate: Complete response (CR),"[2]; Total, all dose groups",0 (0.0) N (%)
same,Response rate: Partial response (PR),"[2]; Total, all dose groups",0 (0.0) N (%)
same,Response rate: Progressive disease (PD),"[2]; Total, all dose groups",9 (42.9) N (%)
same,"Number of cycles completed, Median","[2]; Total, all dose groups",2
same,"Number of cycles completed, Range","[2]; Total, all dose groups",1–13
same,"complete response (CR) or partial response (PR), in words","[2]; all patients, during the trial",Neither complete response (CR) nor partial response (PR) was found; also recorded: no patients showed CR or PR
same,patients who repeated the regimen,[2]; of 21 patients,11 patients
same,"Progression-free survival, Range",[2]; [6],79 to 373 days
same,median progression-free survival,[2]; [6],227 days
same,"number of cycles, median",[2]; [6],8 cycles
same,"number of cycles, range",[2]; [6],3–13 cycles
same,excretion in urine,[3],not excreted in urine
same,drug-related AEs,US patients; US patients on 800-mg regimen,all patients on 800-mg regimen experienced drug-related AEs
same,Dose-limiting toxicity (DLT),"US patients; phase I trial in the US patients, up to 800 mg",no DLT was observed up to 800 mg
